Experimental data: ChEMBL document CHEMBL4649983, “Selective targeting of the BRG/PB1 bromodomains impairs embryonic and trophoblast stem cell maintenance” (Sci Adv, 2015)
Several values for one entry are separate records, joined by “and”; a condition that tells them apart may be missing. Equal values may be shown once.

Key:
[1] = biological target: Bromodomain-containing protein 3 (Homo sapiens) (UniProt Q15059); assay: Thermal Shift Assay. Domain start/stop: P24-E144; conditions: Compound concentration 10.0 uM, Protein concentration 2.0 uM
[2] = biological target: Histone acetyltransferase p300 (Homo sapiens) (UniProt Q09472); assay: Thermal Shift Assay. Domain start/stop: A1040-S1171; conditions: Compound concentration 10.0 uM, Protein concentration 2.0 uM
[3] = biological target: Protein polybromo-1 (Homo sapiens) (UniProt Q86U86); assay: Thermal Shift Assay. Domain start/stop: H23-D159; conditions: Compound concentration 10.0 uM, Protein concentration 2.0 uM
[4] = biological target: Protein polybromo-1 (Homo sapiens) (UniProt Q86U86); assay: Thermal Shift Assay. Domain start/stop: R487-D598; conditions: Compound concentration 10.0 uM, Protein concentration 2.0 uM
[5] = biological target: SWI/SNF-related matrix-associated actin-dependent regulator of chromatin subfamily A member 2 (Homo sapiens) (UniProt P51531); assay: Thermal Shift Assay. Domain start/stop: A1373-E1493; conditions: Compound concentration 10.0 uM, Protein concentration 2.0 uM
[6] = biological target: Tripartite motif-containing protein 66 (Homo sapiens) (UniProt O15016); assay: Thermal Shift Assay. Domain start/stop: M1091-S1218; conditions: Compound concentration 10.0 uM, Protein concentration 2.0 uM
[7] = biological target: PH-interacting protein (Homo sapiens) (UniProt Q8WWQ0); conditions: Compound concentration 20.0 uM, Protein concentration 25.0 uM
Description: Alphascreen assay. Domain start/stop: D1302-R1434

[8] = biological target: Histone-lysine N-methyltransferase ASH1L (Homo sapiens) (UniProt Q9NR48); conditions: Compound concentration 10.0 uM, Protein concentration 2.0 uM
[9] = biological target: ATPase family AAA domain-containing protein 2 (Homo sapiens) (UniProt Q6PL18); conditions: Compound concentration 10.0 uM, Protein concentration 2.0 uM
[10] = biological target: ATPase family AAA domain-containing protein 2B (Homo sapiens) (UniProt Q9ULI0); conditions: Compound concentration 10.0 uM, Protein concentration 2.0 uM
[11] = biological target: Bromodomain adjacent to zinc finger domain protein 1A (Homo sapiens) (UniProt Q9NRL2); conditions: Compound concentration 10.0 uM, Protein concentration 2.0 uM
[12] = biological target: Bromodomain adjacent to zinc finger domain protein 2A (Homo sapiens) (UniProt Q9UIF9); conditions: Compound concentration 10.0 uM, Protein concentration 2.0 uM
[13] = biological target: Bromodomain adjacent to zinc finger domain protein 2B (Homo sapiens) (UniProt Q9UIF8); conditions: Compound concentration 10.0 uM, Protein concentration 2.0 uM
[14] = biological target: Nucleosome-remodeling factor subunit BPTF (Homo sapiens) (UniProt Q12830); conditions: Compound concentration 10.0 uM, Protein concentration 2.0 uM
[15] = biological target: Bromodomain-containing protein 1 (Homo sapiens) (UniProt O95696); conditions: Compound concentration 10.0 uM, Protein concentration 2.0 uM
[16] = biological target: Bromodomain-containing protein 2 (Homo sapiens) (UniProt P25440); conditions: Compound concentration 10.0 uM, Protein concentration 2.0 uM
[17] = biological target: Bromodomain-containing protein 2 (Homo sapiens) (UniProt P25440); conditions: Compound concentration 10.0 uM, Protein concentration 2.0 uM; remark: listed apart in the source
[18] = biological target: Bromodomain-containing protein 3 (Homo sapiens) (UniProt Q15059); conditions: Compound concentration 10.0 uM, Protein concentration 2.0 uM
[19] = biological target: Bromodomain-containing protein 4 (Homo sapiens) (UniProt O60885); conditions: Compound concentration 10.0 uM, Protein concentration 2.0 uM
[20] = biological target: Bromodomain-containing protein 9 (Homo sapiens) (UniProt Q9H8M2); conditions: Compound concentration 10.0 uM, Protein concentration 2.0 uM
[21] = biological target: Bromodomain testis-specific protein (Homo sapiens) (UniProt Q58F21); conditions: Compound concentration 10.0 uM, Protein concentration 2.0 uM
[22] = biological target: Bromodomain testis-specific protein (Homo sapiens) (UniProt Q58F21); conditions: Compound concentration 10.0 uM, Protein concentration 2.0 uM; remark: listed apart in the source
Peregrin (Homo sapiens) [23] = biological target: Peregrin (Homo sapiens) (UniProt P55201); conditions: Compound concentration 10.0 uM, Protein concentration 2.0 uM
[24] = biological target: Bromodomain and PHD finger-containing protein 3 (Homo sapiens) (UniProt Q9ULD4); conditions: Compound concentration 10.0 uM, Protein concentration 2.0 uM
[25] = biological target: Bromodomain and WD repeat-containing protein 1 (Homo sapiens) (UniProt Q9NSI6); conditions: Compound concentration 10.0 uM, Protein concentration 2.0 uM
[26] = biological target: Bromodomain and WD repeat-containing protein 3 (Homo sapiens) (UniProt Q6RI45); conditions: Compound concentration 10.0 uM, Protein concentration 2.0 uM
[27] = biological target: Chromatin remodeling regulator CECR2 (Homo sapiens) (UniProt Q9BXF3); conditions: Compound concentration 10.0 uM, Protein concentration 2.0 uM
[28] = biological target: CREB-binding protein (Homo sapiens) (UniProt Q92793); conditions: Compound concentration 10.0 uM, Protein concentration 2.0 uM
[29] = biological target: Histone acetyltransferase p300 (Homo sapiens) (UniProt Q09472); conditions: Compound concentration 10.0 uM, Protein concentration 2.0 uM
[30] = biological target: Histone acetyltransferase KAT2A (Homo sapiens) (UniProt Q92830); conditions: Compound concentration 10.0 uM, Protein concentration 2.0 uM
[31] = biological target: Histone acetyltransferase KAT2B (Homo sapiens) (UniProt Q92831); conditions: Compound concentration 10.0 uM, Protein concentration 2.0 uM
[32] = biological target: Protein polybromo-1 (Homo sapiens) (UniProt Q86U86); conditions: Compound concentration 10.0 uM, Protein concentration 2.0 uM
[33] = biological target: Protein polybromo-1 (Homo sapiens) (UniProt Q86U86); conditions: Protein concentration 2.0 uM
[34] = biological target: Protein polybromo-1 (Homo sapiens) (UniProt Q86U86); conditions: Compound concentration 10.0 uM, Protein concentration 2.0 uM; remark: listed apart in the source
[35] = biological target: Protein polybromo-1 (Homo sapiens) (UniProt Q86U86); conditions: Protein concentration 2.0 uM; remark: listed apart in the source
[36] = biological target: Protein polybromo-1 (Homo sapiens) (UniProt Q86U86); conditions: Compound concentration 10.0 uM, Protein concentration 2.0 uM; remark: listed apart in the source
[37] = biological target: PH-interacting protein (Homo sapiens) (UniProt Q8WWQ0); conditions: Compound concentration 10.0 uM, Protein concentration 2.0 uM
[38] = biological target: SWI/SNF-related matrix-associated actin-dependent regulator of chromatin subfamily A member 2 (Homo sapiens) (UniProt P51531); conditions: Compound concentration 10.0 uM, Protein concentration 2.0 uM
[39] = biological target: SWI/SNF-related matrix-associated actin-dependent regulator of chromatin subfamily A member 4 (Homo sapiens) (UniProt P51532); conditions: Compound concentration 10.0 uM, Protein concentration 2.0 uM
[40] = biological target: Nuclear body protein SP140 (Homo sapiens) (UniProt Q13342); conditions: Compound concentration 10.0 uM, Protein concentration 2.0 uM
[41] = biological target: Nuclear body protein SP140-like protein (Homo sapiens) (UniProt Q9H930); conditions: Compound concentration 10.0 uM, Protein concentration 2.0 uM
[42] = biological target: Transcription initiation factor TFIID subunit 1 (Homo sapiens) (UniProt P21675); conditions: Compound concentration 10.0 uM, Protein concentration 2.0 uM
[43] = biological target: Transcription initiation factor TFIID subunit 1 (Homo sapiens) (UniProt P21675); conditions: Compound concentration 10.0 uM, Protein concentration 2.0 uM; remark: listed apart in the source
[44] = biological target: Transcription initiation factor TFIID subunit 1-like (Homo sapiens) (UniProt Q8IZX4); conditions: Compound concentration 10.0 uM, Protein concentration 2.0 uM
[45] = biological target: Transcription initiation factor TFIID subunit 1-like (Homo sapiens) (UniProt Q8IZX4); conditions: Compound concentration 10.0 uM, Protein concentration 2.0 uM; remark: listed apart in the source
[46] = biological target: Transcription intermediary factor 1-alpha (Homo sapiens) (UniProt O15164); conditions: Compound concentration 10.0 uM, Protein concentration 2.0 uM
[47] = biological target: Transcription intermediary factor 1-beta (Homo sapiens) (UniProt Q13263); conditions: Compound concentration 10.0 uM, Protein concentration 2.0 uM
[48] = biological target: Bromodomain-containing protein 4 (Homo sapiens) (UniProt O60885); conditions: Compound concentration 10.0 uM, Protein concentration 2.0 uM; remark: listed apart in the source
Peregrin (Homo sapiens) [49] = biological target: Peregrin (Homo sapiens) (UniProt P55201); conditions: Compound concentration 10.0 uM, Protein concentration 2.0 uM; remark: listed apart in the source
[50] = biological target: Transcription intermediary factor 1-alpha (Homo sapiens) (UniProt O15164); conditions: Compound concentration 10.0 uM, Protein concentration 2.0 uM; remark: listed apart in the source
[51] = Compound concentration 100.0 uM

Chain of SWI/SNF-related matrix-associated actin-dependent regulator of chromatin subfamily A member 2 (Homo sapiens) (P51531 whole entry): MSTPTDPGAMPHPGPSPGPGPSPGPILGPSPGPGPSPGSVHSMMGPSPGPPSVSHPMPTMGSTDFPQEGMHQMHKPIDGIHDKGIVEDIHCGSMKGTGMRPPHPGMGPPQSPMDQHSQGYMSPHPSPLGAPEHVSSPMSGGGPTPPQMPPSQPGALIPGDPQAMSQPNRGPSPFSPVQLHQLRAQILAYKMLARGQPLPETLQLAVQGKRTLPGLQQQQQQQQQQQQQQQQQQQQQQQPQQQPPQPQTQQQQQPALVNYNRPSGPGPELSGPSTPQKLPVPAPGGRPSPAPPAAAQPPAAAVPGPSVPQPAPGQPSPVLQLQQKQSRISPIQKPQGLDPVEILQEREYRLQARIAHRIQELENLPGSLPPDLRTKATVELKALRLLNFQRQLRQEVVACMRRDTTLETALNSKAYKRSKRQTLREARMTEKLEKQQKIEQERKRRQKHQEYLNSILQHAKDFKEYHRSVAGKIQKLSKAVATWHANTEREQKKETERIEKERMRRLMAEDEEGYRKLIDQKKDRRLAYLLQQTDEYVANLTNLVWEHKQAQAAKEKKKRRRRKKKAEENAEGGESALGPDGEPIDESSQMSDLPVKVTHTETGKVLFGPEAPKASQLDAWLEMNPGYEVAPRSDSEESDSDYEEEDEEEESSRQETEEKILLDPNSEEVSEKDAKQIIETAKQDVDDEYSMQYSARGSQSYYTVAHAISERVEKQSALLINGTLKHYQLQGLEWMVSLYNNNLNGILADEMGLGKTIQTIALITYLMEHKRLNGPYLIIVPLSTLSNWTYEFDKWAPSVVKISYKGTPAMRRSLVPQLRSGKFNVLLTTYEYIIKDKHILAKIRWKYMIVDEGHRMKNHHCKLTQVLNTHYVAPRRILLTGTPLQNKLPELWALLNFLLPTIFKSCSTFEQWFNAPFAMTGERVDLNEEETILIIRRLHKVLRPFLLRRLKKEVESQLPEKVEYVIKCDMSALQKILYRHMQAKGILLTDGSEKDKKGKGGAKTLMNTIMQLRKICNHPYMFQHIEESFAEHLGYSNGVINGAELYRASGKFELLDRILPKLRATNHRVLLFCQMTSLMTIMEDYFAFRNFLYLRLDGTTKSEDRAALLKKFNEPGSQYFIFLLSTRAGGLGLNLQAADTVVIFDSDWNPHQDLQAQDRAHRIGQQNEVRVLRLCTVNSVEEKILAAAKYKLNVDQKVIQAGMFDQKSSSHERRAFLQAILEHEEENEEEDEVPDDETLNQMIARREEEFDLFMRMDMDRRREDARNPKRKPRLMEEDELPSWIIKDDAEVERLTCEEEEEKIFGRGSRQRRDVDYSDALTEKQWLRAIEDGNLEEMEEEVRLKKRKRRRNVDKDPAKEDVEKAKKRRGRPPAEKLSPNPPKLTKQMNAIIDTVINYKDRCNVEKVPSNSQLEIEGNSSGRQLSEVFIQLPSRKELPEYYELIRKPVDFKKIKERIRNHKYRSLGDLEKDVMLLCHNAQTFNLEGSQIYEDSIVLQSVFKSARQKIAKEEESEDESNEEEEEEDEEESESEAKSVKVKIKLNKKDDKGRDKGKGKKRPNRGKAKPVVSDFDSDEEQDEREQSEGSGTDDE
Chain of Protein polybromo-1 (Homo sapiens) (Q86U86 whole entry): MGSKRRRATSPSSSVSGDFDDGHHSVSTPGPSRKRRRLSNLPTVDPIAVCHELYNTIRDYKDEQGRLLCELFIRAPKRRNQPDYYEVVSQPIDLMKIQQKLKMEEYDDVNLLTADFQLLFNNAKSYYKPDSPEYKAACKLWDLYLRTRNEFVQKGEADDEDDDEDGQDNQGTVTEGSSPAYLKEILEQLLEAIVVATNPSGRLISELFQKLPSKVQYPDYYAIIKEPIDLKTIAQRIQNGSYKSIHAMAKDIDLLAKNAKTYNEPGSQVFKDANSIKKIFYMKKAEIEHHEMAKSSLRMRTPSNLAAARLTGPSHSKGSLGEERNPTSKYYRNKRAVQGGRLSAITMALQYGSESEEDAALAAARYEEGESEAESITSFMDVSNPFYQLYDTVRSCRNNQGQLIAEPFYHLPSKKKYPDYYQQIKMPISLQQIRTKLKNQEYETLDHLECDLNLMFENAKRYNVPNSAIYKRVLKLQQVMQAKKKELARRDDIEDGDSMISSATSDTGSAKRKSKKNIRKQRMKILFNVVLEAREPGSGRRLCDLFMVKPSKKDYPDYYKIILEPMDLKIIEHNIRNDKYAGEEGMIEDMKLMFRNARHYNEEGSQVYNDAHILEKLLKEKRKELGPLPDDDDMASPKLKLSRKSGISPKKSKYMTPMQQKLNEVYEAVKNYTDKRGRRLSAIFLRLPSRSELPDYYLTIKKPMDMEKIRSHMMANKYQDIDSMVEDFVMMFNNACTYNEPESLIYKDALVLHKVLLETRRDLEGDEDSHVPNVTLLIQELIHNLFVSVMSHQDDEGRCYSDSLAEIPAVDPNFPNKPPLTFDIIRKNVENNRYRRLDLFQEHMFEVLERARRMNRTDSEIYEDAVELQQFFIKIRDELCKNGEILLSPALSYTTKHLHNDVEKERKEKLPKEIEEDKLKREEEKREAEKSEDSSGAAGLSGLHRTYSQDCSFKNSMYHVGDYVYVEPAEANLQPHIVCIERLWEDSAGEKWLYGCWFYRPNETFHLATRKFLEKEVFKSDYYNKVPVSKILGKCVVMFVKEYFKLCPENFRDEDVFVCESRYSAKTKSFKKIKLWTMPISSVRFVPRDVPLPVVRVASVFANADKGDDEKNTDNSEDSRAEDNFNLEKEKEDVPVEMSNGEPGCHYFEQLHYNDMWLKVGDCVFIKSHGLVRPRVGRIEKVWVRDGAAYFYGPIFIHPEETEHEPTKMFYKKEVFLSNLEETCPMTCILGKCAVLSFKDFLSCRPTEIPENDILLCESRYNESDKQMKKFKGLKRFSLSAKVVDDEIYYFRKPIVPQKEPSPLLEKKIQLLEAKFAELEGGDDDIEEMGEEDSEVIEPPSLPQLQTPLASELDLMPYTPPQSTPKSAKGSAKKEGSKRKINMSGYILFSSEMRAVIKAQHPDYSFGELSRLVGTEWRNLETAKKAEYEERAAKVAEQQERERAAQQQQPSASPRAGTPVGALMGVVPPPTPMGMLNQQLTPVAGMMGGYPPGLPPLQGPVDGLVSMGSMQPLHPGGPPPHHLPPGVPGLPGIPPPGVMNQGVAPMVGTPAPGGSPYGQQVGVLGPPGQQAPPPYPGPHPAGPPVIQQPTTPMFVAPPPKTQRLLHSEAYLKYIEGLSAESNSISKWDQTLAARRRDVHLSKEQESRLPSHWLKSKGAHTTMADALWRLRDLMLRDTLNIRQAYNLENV
Chain of SWI/SNF-related matrix-associated actin-dependent regulator of chromatin subfamily A member 4 (Homo sapiens) (P51532 whole entry): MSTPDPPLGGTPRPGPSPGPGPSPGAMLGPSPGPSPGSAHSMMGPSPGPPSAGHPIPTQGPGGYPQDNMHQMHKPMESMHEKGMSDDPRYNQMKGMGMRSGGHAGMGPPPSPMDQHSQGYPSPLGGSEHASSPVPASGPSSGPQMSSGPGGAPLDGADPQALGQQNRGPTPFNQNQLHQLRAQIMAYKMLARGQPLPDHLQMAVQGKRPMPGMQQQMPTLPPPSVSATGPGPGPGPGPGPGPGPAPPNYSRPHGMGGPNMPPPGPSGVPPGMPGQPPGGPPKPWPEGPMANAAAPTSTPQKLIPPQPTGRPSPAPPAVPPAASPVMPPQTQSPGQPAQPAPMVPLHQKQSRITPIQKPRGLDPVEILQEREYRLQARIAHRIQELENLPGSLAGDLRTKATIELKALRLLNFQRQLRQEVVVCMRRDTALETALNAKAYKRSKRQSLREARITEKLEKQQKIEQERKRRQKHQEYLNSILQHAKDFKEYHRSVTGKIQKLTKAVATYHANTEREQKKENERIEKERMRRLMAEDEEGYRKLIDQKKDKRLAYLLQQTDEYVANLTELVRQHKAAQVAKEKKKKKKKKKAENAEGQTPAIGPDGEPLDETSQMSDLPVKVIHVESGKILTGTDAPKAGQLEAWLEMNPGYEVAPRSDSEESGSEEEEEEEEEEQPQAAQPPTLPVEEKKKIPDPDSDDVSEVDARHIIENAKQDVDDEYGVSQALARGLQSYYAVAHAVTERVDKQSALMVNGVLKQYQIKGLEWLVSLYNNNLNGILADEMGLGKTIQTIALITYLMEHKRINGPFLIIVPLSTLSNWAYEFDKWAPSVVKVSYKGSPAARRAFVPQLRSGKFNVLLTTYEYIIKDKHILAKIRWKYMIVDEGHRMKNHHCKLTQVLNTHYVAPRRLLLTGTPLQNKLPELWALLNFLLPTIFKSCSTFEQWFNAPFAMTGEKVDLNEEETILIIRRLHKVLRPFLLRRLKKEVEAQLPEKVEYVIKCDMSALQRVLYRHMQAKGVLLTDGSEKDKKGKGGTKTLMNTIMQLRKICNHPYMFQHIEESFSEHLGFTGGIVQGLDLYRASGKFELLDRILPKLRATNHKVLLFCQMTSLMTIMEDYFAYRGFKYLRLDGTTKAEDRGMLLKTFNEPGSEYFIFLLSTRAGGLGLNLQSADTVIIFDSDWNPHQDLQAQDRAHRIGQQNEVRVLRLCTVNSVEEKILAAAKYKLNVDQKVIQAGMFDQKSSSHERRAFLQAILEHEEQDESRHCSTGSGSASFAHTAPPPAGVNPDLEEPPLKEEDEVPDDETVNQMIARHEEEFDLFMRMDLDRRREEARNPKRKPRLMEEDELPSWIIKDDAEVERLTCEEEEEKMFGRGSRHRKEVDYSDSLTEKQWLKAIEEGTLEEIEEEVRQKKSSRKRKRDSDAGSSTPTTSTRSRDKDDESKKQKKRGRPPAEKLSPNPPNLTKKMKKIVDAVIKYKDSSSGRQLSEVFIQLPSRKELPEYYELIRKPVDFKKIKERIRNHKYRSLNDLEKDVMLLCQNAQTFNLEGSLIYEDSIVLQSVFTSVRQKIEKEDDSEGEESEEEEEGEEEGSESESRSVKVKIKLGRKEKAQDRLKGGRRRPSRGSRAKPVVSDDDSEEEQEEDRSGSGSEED

ΔTm [1]: 0.14 °C
ΔTm [2]: 0.19 °C
ΔTm [3]: 0.05 °C
ΔTm [4]: 0.77 °C
ΔTm [5]: 5.23 °C
ΔTm [6]: 0.5 °C
ΔTm [7]: -0.35 °C
ΔTm [8]: 0.52 °C
ΔTm [9]: 0.59 °C and -0.66 °C
ΔTm [10]: -0.01 °C
ΔTm [11]: 0.92 °C
ΔTm [12]: 0.02 °C
ΔTm [13]: 0.24 °C
ΔTm [14]: 0.61 °C
ΔTm [15]: 0.2 °C and 0.15 °C
ΔTm [16]: 0.4 °C
ΔTm [17]: 0 °C
ΔTm [18]: 0.84 °C
ΔTm [19]: 0.56 °C
ΔTm [20]: 1.22 °C and 0.26 °C
ΔTm [21]: 0.83 °C
ΔTm [22]: 1.04 °C
ΔTm (Peregrin (Homo sapiens) [23]): -0.08 °C
ΔTm [24]: 1.15 °C
ΔTm [25]: 0.96 °C
ΔTm [26]: 1.25 °C
ΔTm [27]: 0.39 °C
ΔTm [28]: -0.23 °C and 0.38 °C
ΔTm [29]: 0.24 °C
ΔTm [30]: 0.77 °C
ΔTm [31]: 0.71 °C and -0.1 °C
ΔTm [32]: 10 °C
ΔTm ([33]; Compound concentration 10.0 uM): 0.98 °C
ΔTm [33, 51]: 2.54 °C
ΔTm [34]: 0.85 °C
ΔTm ([35]; Compound concentration 10.0 uM): 1.13 °C
ΔTm [35, 51]: 4.63 °C
ΔTm [36]: 0.54 °C
ΔTm [37]: 1.62 °C
ΔTm [38]: 6.62 °C and 8.52 °C
ΔTm [39]: 5.19 °C and 7.18 °C (2×)
ΔTm [40]: 1.62 °C
ΔTm [41]: 1.02 °C
ΔTm [42]: -0.08 °C
ΔTm [43]: 0.75 °C
ΔTm [44]: 0.34 °C
ΔTm [45]: 1.1 °C
ΔTm [46]: 0.79 °C
ΔTm [47]: 0.43 °C
ΔTm [48]: 0.36 °C and -0.62 °C
ΔTm (Peregrin (Homo sapiens) [49]): 1.12 °C
ΔTm [50]: 0.65 °C
Compound: O=C(/C=C/N1C[C@H]2C[C@@H]1CN2c1ccccn1)c1ccccc1O
